Positions count from the first letter of the chain named.
B1: Asp29: murine INF-β with replacement of Asn29 with Asp29 (protein, UniProt P01575 22-182, looked up, variant N29D)
Interferon beta: INYKQLQLQERTNIRKCQELLEQLNGKIDLTYRADFKIPMEMTEKMQKSYTAFAIQEMLQNVFLVFRNNFSSTGWNETIVVRLLDELHQQTVFLKTVLEEKQEERLTWEMSSTALHLKSYYWRVQRYLKLMKYNSYAWMVVRAEIFRNFLIIRRLTRNFQN
B2: Ala29: murine INF-β with replacement of Asn29 with Ala29 (protein, UniProt P01575 22-182, looked up, variant N29A)
Interferon beta: B1 Interferon beta with D29A
B3: non-glycosylated IFN-β: non-glycosylated murine interferon-β (protein, UniProt P01575 22-182, looked up)
Interferon beta: B1 Interferon beta with D29N
modifications: non-glycosylated

How the values were obtained:
wild-type ribosomes = assay: Incorporation of glycosylated amino acids into proteins from activated suppressor tRNAs by wild-type ribosomes; assay type: biochemical, E. coli; details: nonsense codon suppression with activated suppressor tRNA
Text: FIG. 3 depicts glycosylated amino acids incorporated into proteins by wild-type E. coli ribosomes.
Many glycosylated amino acids can be incorporated into proteins in quite good yield from activated suppressor tRNAs by nonsense codon suppression employing wild-type ribosomes. However, in numerous experiments, when any of these was O- or N-acetylated at one or more positions, the result was virtually complete loss of the ability of the activated tRNAs to suppress nonsense codons. Accordingly, we have used O-GlcNAc-puromycin (FIG. 4) to select modified ribosomes capable of incorporating N-acetylglycosyl amino acids.
Post-translational protein glycosylation is both ubiquitous in nature and quite important. […] However, for whatever reason(s), neither O- nor N-acetylated glycosyl amino acids could be incorporated in good yield with wild-type ribosomes. We wish to select modified ribosomes capable of incorporating O- or N-acetylated glycosyl amino acids efficiently.

[1] = system: CD40 expression in RAW 264.7 mouse macrophage cells; assay: CD40 upregulation in RAW 264.7 cells by flow cytometry with PE-conjugated anti-mouse CD40 antibody; assay type: cell-based
Description: FIG. 6. Flow cytometry analysis of RAW 264.7 cells treated with murine IFNs and probed with PE-conjugated anti-mouse CD40 antibody. Upper left, 0.6 pg/mL glycosylated IFN; upper right, 6 pg/mL non-glycosylated IFN; lower left, 0.6 pg/mL non-glycosylated IFN; lower right, control lacking IFN.
These four modified INF-βs were tested in parallel with wild-type (fully glycosylated) mouse IFN-β for their activities. Our assay system uses RAW 264.7 mouse macrophage cells (ATCC TIB-71), which have been transformed using Abelson murine leukemia virus. […] CD40 upregulation was probed using a PE (phycoerythrin)-conjugated anti-mouse CD40 antibody. As shown (FIG. 6), this assay system has been used successfully to compare fully glycosylated and non-glycosylated murine INF-βs by flow cytometry.

antiviral activity = details: murine INF-β, modification at position 29; cited from earlier work

Molecule | response in CD40 upregulation assay [1] | reduction of antiviral activity from wild-type (antiviral activity) | other results
N[C@@H](Cc1ccc(OC2O[C@H](CO)[C@@H](O[C@@H]3O[C@H](CO)[C@H](O)[C@H](O)[C@H]3O)[C@H](O)[C@H]2O)cc1)C(=O)O (stereo partly drawn) [O-lactosyltyrosine] | – | – | incorporation into proteins by wild-type ribosomes (wild-type ribosomes): incorporated into proteins quite well
glycosylated IFN-β: fully glycosylated murine interferon-β | dose-dependent responses | – | potency relative to non-glycosylated IFN-β ([1]; CD40 upregulation): about 10 fold
B1 | – | two-fold | –
B2 | – | 10 fold | –
B3 | dose-dependent responses | – | –
